# Test results reported in US5399691A, “Substituted benzoylurea derivatives or their salts” (Ishihara Sangyo Kaisha Ltd., priority 1991, dated 1995).
# Structures can show the parent of a compound that is named as a salt. Where two headings read alike, the source gives them in different places.
# Experiments:
# P-388 leukemia = assay: Antitumor activity against P-388 leukemia, increase life span (Test Example 1); assay type: in vivo, BDF1 mouse (murine); details: days 1, 5 and 9
# Description: The compounds of the present invention are effective against experimental murine tumors such as P-388 leukemia, L-1210 leukemia, B-16 melanoma, M-5076 sarcoma, Colon 38, Colon 26 and Lewis lung carcinoma. On the other hand, certain in vivo test systems and protocols have been developed by National Cancer Institute for testing compounds to determine the effectiveness of test compounds as antineoplastic agents. These have been reported in "Cancer Chemotherapy Reports", Part III, Vol. 3, No. 2 (1972) written by Deran, Greenberg, MacDonald, Schumacher and Abott. P-388 leukemia is the most standard experimental murine tumor, and it is known that many of drugs effective against human tumor are also effective against this leukemia. Generally, the effectiveness of a drug for these experimental murine tumors is evaluated by the extended median survival time of a test mouse group to which a test drug is administered on the basis of the median survival time of a control mouse group to which no drug is administered. If the extended median survival time is at least 25-30% longer, the administered drug is determined to be effective.
# 1×10^6 of P-388 leukemia cells per mouse were intraperitoneally transplanted into BDF1 mouse. Each formulation was intraperitoneally or intravenously administered on the 1st, 5th and 9th days after the transplantation.
# The increase life span of each group was determined by comparing the median survival time (days) of a test group to which a test drug is administered and the median survival time (days) of a control group to which physiological saline was administered at the same part as in the case of the test group. Among the tested drug formulations, the compounds of the present invention were formulated in accordance with the below-mentioned Formulation Example 1, and the comparative compounds as shown in Table 8 were formulated in accordance with the below-mentioned Formulation Example 2.
# (Note) * Increase life span is calculated by the following equation:
# Increase life span % (ILS)=(a/b×100)-100 a: Median survival days of test group of drug administration b: Median survival days of control group of physiological saline administration 0.125 part by weight of the above mentioned Compound No. 1 was dissolved in 5 parts by weight of N,N-dimethylacetamide and 5 parts by weight of polyoxyethylene sorbitan monooleate, and 90 parts by weight of physiological saline was added thereto to form a solution formulation in an agate mortar.
# 0.125 part by weight of Comparative Compound No. 1 was dissolved in 5 parts by weight of N,N-dimethylacetamide and 5 parts by weight of polyoxyethylene sorbitan monooleate, and 90 parts by weight of physiological saline was added thereto to form a suspension formulation in an agate mortar.
# [1] = Solubility in water-soluble solvent by HPLC (Test Example 2); assay type: physicochemical
# Method: About 2 mg of each of the compounds of the present invention shown in the following Table 7 was accurately weighed, and was completely dissolved in 2 ml of N,N-dimethylacetamide. The content was then transferred into a 10 ml-measuring flask, and its volume was made constant with acetonitrile. 3 ml of the resultant solution was placed in a 50 ml-measuring flask, and its volume was adjusted constant with acetonitrile to prepare a standard solution. Next, about 2 mg of each of the compounds of the present invention was weighed, and was placed in an agate mortar. Thereafter, 1.5 ml of a test liquid (water-soluble solvent) was added thereto, and the content was mixed for 5 minutes. A suspension thus obtained, was transferred into a 1.5 ml-microtube, and was centrifuged at 15,000 r.p.m. for 10 minutes. The supernatant fluid was placed in a 1 ml-microtube, and was centrifuged again under the same conditions. 0.1 ml of the supernatant fluid thus obtained was diluted with 0.9 ml of acetonitrile to prepare a measuring liquid. The above standard solution and the measuring liquid were analyzed by high pressure liquid chromatography (HPLC), and their solubilities were measured by absolute calibration curve method.
# Column: Nucleosil 5 C18, diameter=4.6 mm, length=250 mm
# Mobile phase: acetonitrile/water/acetic acid=60/40/0.1
# Detection: UV 265 nm, Column temperature: 40° C.,
# Sensitivity: 0.005 AUFS or 0.16 AUFS,
# Acute toxicity = assay type: in vivo; details: mouse, in vivo; BDF1 mice, intravenous, Formulation Example 1; read-out: acute toxicity value (LD 50)
# Method: (§1) None of BDF1 mice were dead by intravenously administering each formulation of Compound Nos. 1 to 9, 20, 49 and 53 of the present invention prepared in accordance with Formulation Example 1 in an amount of 25 mg/kg mouse (on the basis of compound).
# (§2) 0.125 part by weight of the above mentioned Compound No. 1 was dissolved in 5 parts by weight of N,N-dimethylacetamide and 5 parts by weight of polyoxyethylene sorbitan monooleate, and 90 parts by weight of physiological saline was added thereto to form a solution formulation in an agate mortar.
# BDF1 mice = assay: Acute toxicity; assay type: in vivo; details: intravenous, 25 mg/kg mouse, Formulation Example 1
# Method: as §1, §2
# [2] = Mus musculus, P388, intravenous, 12.5 mg/kg
# [3] = Mus musculus, P388, intravenous, 25 mg/kg
# [4] = 10% peg 400 aqueous, organic solvent or mixture, 10% polyethylene glycol #400 aqueous solution, read-out: Solubility, test solution C
# [5] = distilled water, water, read-out: Solubility, test solution A
# [6] = physiological saline, read-out: Solubility, test solution B
# [7] = Mus musculus, P388, ip, intraperitoneal
# [8] = Mus musculus, P388, ip, intraperitoneal, 12.5 mg/kg
# [9] = Mus musculus, P388, ip, intraperitoneal, 25 mg/kg
# [10] = Mus musculus, P388, intravenous
SMILES,ILS at 12.5 mg/kg (P-388 leukemia; [2]) [%],ILS at 25 mg/kg (P-388 leukemia; [3]) [%],"solubility [1, 4] [µg/mL]","solubility [1, 5] [µg/mL]","solubility [1, 6] [µg/mL]",LD50 (Acute toxicity) [mg/kg],ILS at 6.25 mg/kg (P-388 leukemia; [7]) [%],ILS at 12.5 mg/kg (P-388 leukemia; [8]) [%],ILS at 25 mg/kg (P-388 leukemia; [9]) [%],ILS at 6.25 mg/kg (P-388 leukemia; [10]) [%],BDF1 mice dead (BDF1 mice),"Increase life span (ILS %) (P-388 leukemia; intraperitoneal, 25 mg/kg)","ILS at 10 mg/kg (P-388 leukemia; Mus musculus, P388, intravenous, 10 mg/kg (footnote d)) [%]","ILS at 20 mg/kg (P-388 leukemia; Mus musculus, P388, intravenous, 20 mg/kg (footnote c)) [%]","Increase life span (ILS %) (P-388 leukemia; intraperitoneal, 12.5 mg/kg)"
CSCC[C@H](N)C(=O)Nc1ccccc1C(=O)NC(=O)Nc1ccc(Oc2ncc(Br)cn2)c(Cl)c1 [Compound No. 5],3,152,2000,1200,30,≥ 25,,,,,,,,,
"CCc1cc(NC(=O)NC(=O)c2ccccc2N)ccc1Oc1ncc(Br)cn1 [compound 3, reference compound]",,,,< 0.1,,,26,26,99,,,,,,
Cc1cc(NC(=O)NC(=O)c2ccccc2NC(=O)[C@H](C)N)ccc1Oc1ncc(Br)cn1 [compound 49],76,190,9800,7600,1800,≥ 25,,,,14,None,,,,
"Cc1cc(NC(=O)NC(=O)c2ccccc2N)ccc1Oc1ncc(Cl)cn1 [compound 2, reference compound]",,,,0.8,,,34,83,148,,,,,,
C[C@H](N)C(=O)Nc1ccccc1C(=O)NC(=O)Nc1ccc(Oc2ncc(Br)cn2)c(Cl)c1 [Compound No. 3],70,134,3700,2800,320,≥ 25,,,,10,,,,,
C[C@@H](N)C(=O)Nc1ccccc1C(=O)NC(=O)Nc1ccc(Oc2ncc(Br)cn2)c(Cl)c1 [Compound No. 4],19,95,2700,2000,140,≥ 25,,,,,,,,,
"Cc1cc(NC(=O)NC(=O)c2ccccc2NC(=O)CN)ccc1Oc1ncc(Br)cn1 [Compound No. 7, N-[4-(5-bromo-2-pyrimidinyloxy)-3-methylphenyl]-N'-(2-glycylamino)benzoylurea]",105,143,3900,> 2300,380,≥ 25,,,,50,,,,,
"Nc1ccccc1C(=O)NC(=O)Nc1ccc(Oc2ncc(Br)cn2)c(Cl)c1 [compound 1, reference compound]",,,< 0.05,< 0.05,0.06,,50,107,,,,Tox,,,
NCC(=O)NCC(=O)Nc1ccccc1C(=O)NC(=O)Nc1ccc(Oc2ncc(Br)cn2)c(Cl)c1 [compound 8],90,243,2100,1800,70,≥ 25,,,,,,,,,
"CNCC(=O)Nc1ccccc1C(=O)NC(=O)Nc1ccc(Oc2ncc(Br)cn2)c(C)c1 [compound 53, N-[4-(5-bromo-2-pyrimidinyloxy)-3-methylphenyl]-N'-(2-sarcosylamino)benzoylurea]",,,,5000,120,≥ 25,,,,,None,,> 30,> 50,
"CN(C)CC(=O)Nc1ccccc1C(=O)NC(=O)Nc1ccc(Oc2ncc(Br)cn2)c(Cl)c1 [Compound No. 2, N-[4-(5-bromo-2-pyrimidinyloxy)-3-chlorophenyl]-N'-[2-(N,N-dimethylglycyl)amino]benzoylurea hydrochloride]",51,143,> 4000,2500,550,≥ 25,,,,24,,,,,
NCC(=O)Nc1ccccc1C(=O)NC(=O)Nc1ccc(Oc2ncc(Cl)cn2)c(C(F)(F)F)c1 [compound 6],138,,1900,1400,70,≥ 25,,,,60,,,,,
"Cc1cc(NC(=O)NC(=O)c2ccccc2NC(=O)CN(C)C)ccc1Oc1ncc(Br)cn1 [compound 20, N-[4-(5-bromo-2-pyrimidinyloxy)-3-methylphenyl]-N'-[2-(N,N-dimethylglycyl)amino]benzoylurea]",36,155,20000,19000,3000,≥ 25,,,,,None,,,,
"Nc1ccccc1C(=O)NC(=O)Nc1ccc(Oc2ncc(Cl)cn2)c(C(F)(F)F)c1 [compound 4, reference compound]",,,,0.4,,,71,,,,,Tox,,,Tox
"NCC(=O)Nc1ccccc1C(=O)NC(=O)Nc1ccc(Oc2ncc(Br)cn2)c(Cl)c1 [Compound No. 1, N-[4-(5-bromo-2-pyrimidinyloxy)-3-chlorophenyl]-N'-(2-glycylamino)benzoylurea hydrochloride]",79,219,2100,1200,50,≥ 25,,,,12,,,,,
NCC(=O)Nc1ccccc1C(=O)NC(=O)Nc1ccc(Oc2ncc(Cl)cn2)c(Cl)c1 [compound 9],86,152,1500,1600,160,≥ 25,,,,19,,,,,
